Data reported in ChEMBL document CHEMBL1697731, “Cheminformatics analysis of assertions mined from literature that describe drug-induced liver injury in different species” (Chem Res Toxicol, 2010).

How the values were obtained:
Hepatotoxicity [1] = experiment: Literature-mined compound from Fourches et al multi-species drug-induced liver injury (DILI) dataset, effect in humans; settings: human
Hepatotoxicity [2] = experiment: Literature-mined compound from Fourches et al multi-species drug-induced liver injury (DILI) dataset, effect in rodents; settings: rodentia
Hepatotoxicity [3] = experiment: Literature-mined compound from Fourches et al multi-species drug-induced liver injury (DILI) dataset, effect in non-rodents

Compound	Hepatotoxicity (Hepatotoxicity [1])	Hepatotoxicity (Hepatotoxicity [2])	Hepatotoxicity (Hepatotoxicity [3])
O=[N+]([O-])O[C@@H]1CO[C@H]2[C@@H]1OC[C@@H]2O [ISOSORBIDE MONONITRATE]	drug-induced liver injury reported	no drug-induced liver injury reported	no drug-induced liver injury reported
CC1=C(/C=C/C(C)=C/C=C/C(C)=C\C(=O)O)C(C)(C)CCC1 [ISOTRETINOIN]	drug-induced liver injury reported	no drug-induced liver injury reported	no drug-induced liver injury reported
CC(COc1ccccc1)NC(C)C(O)c1ccc(O)cc1 (stereo not given) [ISOXSUPRINE]	no drug-induced liver injury reported	drug-induced liver injury reported	no drug-induced liver injury reported
COC(=O)C1=C(C)NC(C)=C(C(=O)OC(C)C)C1c1cccc2nonc12 (stereo not given) [ISRADIPINE]	drug-induced liver injury reported	no drug-induced liver injury reported	no drug-induced liver injury reported
CCC(C)n1ncn(-c2ccc(N3CCN(c4ccc(OCC5COC(Cn6cncn6)(c6ccc(Cl)cc6Cl)O5)cc4)CC3)cc2)c1=O (stereo not given) [ITRACONAZOLE]	drug-induced liver injury reported	drug-induced liver injury reported	no drug-induced liver injury reported
C/C(=C\c1csc(C)n1)[C@@H]1C[C@@H]2O[C@]2(C)CCC[C@H](C)[C@H](O)[C@@H](C)C(=O)C(C)(C)[C@@H](O)CC(=O)N1 [IXABEPILONE]	drug-induced liver injury reported	no drug-induced liver injury reported	no drug-induced liver injury reported
CNC1(c2ccccc2Cl)CCCCC1=O (stereo not given) [KETAMINE]	no drug-induced liver injury reported	drug-induced liver injury reported	drug-induced liver injury reported
O=C(c1ccc(F)cc1)C1CCN(CCn2c(=O)[nH]c3ccccc3c2=O)CC1 [KETANSERIN]	drug-induced liver injury reported	drug-induced liver injury reported	no drug-induced liver injury reported
CC(=O)N1CCN(c2ccc(OCC3COC(Cn4ccnc4)(c4ccc(Cl)cc4Cl)O3)cc2)CC1 (stereo not given) [KETOCONAZOLE]	drug-induced liver injury reported	drug-induced liver injury reported	drug-induced liver injury reported
CC(C(=O)O)c1cccc(C(=O)c2ccccc2)c1 (stereo not given) [KETOPROFEN]	drug-induced liver injury reported	no drug-induced liver injury reported	no drug-induced liver injury reported
COc1c2occc2c(OC)c2c(=O)cc(C)oc12 [KHELLIN]	no drug-induced liver injury reported	drug-induced liver injury reported	no drug-induced liver injury reported
CC(CCc1ccccc1)NCC(O)c1ccc(O)c(C(N)=O)c1 (stereo not given) [LABETALOL]	drug-induced liver injury reported	no drug-induced liver injury reported	no drug-induced liver injury reported
CC(O)C(=O)O (stereo not given) [LACTIC ACID]	drug-induced liver injury reported	drug-induced liver injury reported	drug-induced liver injury reported
OC[C@H]1O[C@@H](O[C@@H]2[C@@H](CO)O[C@](O)(CO)[C@H]2O)[C@H](O)[C@@H](O)[C@H]1O [LACTULOSE]	drug-induced liver injury reported	drug-induced liver injury reported	no drug-induced liver injury reported
Nc1ccn([C@@H]2CS[C@H](CO)O2)c(=O)n1 [LAMIVUDINE]	drug-induced liver injury reported	drug-induced liver injury reported	no drug-induced liver injury reported
